Assay results taken from ChEMBL document CHEMBL5038625, “Application of the dual-tail approach for the design and synthesis of novel Thiopyrimidine-Benzenesulfonamide hybrids as selective carbonic anhydrase inhibitors” (Eur J Med Chem, 2022).

Columns and labels:
RXF 393 = test: Antiproliferative activity against human RXF 393 cells assessed as cell growth inhibition at 10 uM incubated for 24 hrs by sulforhodamine B assay; type: functional; details: read-out: GI
HCT-116 = test: Antiproliferative activity against human HCT-116 cells assessed as cell growth inhibition at 10 uM incubated for 24 hrs by sulforhodamine B assay; type: functional; details: read-out: GI
RPMI-8226 = test: Antiproliferative activity against human RPMI-8226 cells assessed as cell growth inhibition at 10 uM incubated for 24 hrs by sulforhodamine B assay; type: functional; details: read-out: GI
A498 = test: Antiproliferative activity against human A498 cells assessed as cell growth inhibition at 10 uM incubated for 24 hrs by sulforhodamine B assay; type: functional; details: read-out: GI
CCRF-CEM = test: Antiproliferative activity against human CCRF-CEM cells assessed as cell growth inhibition at 10 uM incubated for 24 hrs by sulforhodamine B assay; type: functional; details: read-out: GI
Carbonic anhydrase 9 = Carbonic anhydrase 9 (Homo sapiens, UniProt Q16790); test: Inhibition of human CA9 preincubated for 15 mins by phenol red dye based stopped flow CO2 hydration assay
SR = test: Antiproliferative activity against human SR cells assessed as cell growth inhibition at 10 uM incubated for 24 hrs by sulforhodamine B assay; type: functional; details: read-out: GI
T47D [1] = test: Antiproliferative activity against human T47D cells assessed as cell growth inhibition at 10 uM incubated for 24 hrs by sulforhodamine B assay; type: functional; details: read-out: GI
DU-145 = test: Antiproliferative activity against human DU-145 cells assessed as cell growth inhibition at 10 uM incubated for 24 hrs by sulforhodamine B assay; type: functional; details: read-out: GI
SN12C = test: Antiproliferative activity against human SN12C cells assessed as cell growth inhibition at 10 uM incubated for 24 hrs by sulforhodamine B assay; type: functional; details: read-out: GI
HOP-92 = test: Antiproliferative activity against human HOP-92 cells assessed as cell growth inhibition at 10 uM incubated for 24 hrs by sulforhodamine B assay; type: functional; details: read-out: GI
HL-60 = test: Antiproliferative activity against human HL-60 cells assessed as cell growth inhibition at 10 uM incubated for 24 hrs by sulforhodamine B assay; type: functional; details: read-out: GI
MDA-MB-231 [2] = test: Antiproliferative activity against human MDA-MB-231 cells assessed as cell growth inhibition at 10 uM incubated for 24 hrs by sulforhodamine B assay; type: functional; details: read-out: GI
NCI-H522 = test: Antiproliferative activity against human NCI-H522 cells assessed as cell growth inhibition at 10 uM incubated for 24 hrs by sulforhodamine B assay; type: functional; details: read-out: GI
BT-549 = test: Antiproliferative activity against human BT-549 cells assessed as cell growth inhibition at 10 uM incubated for 24 hrs by sulforhodamine B assay; type: functional; details: read-out: GI
Malme-3M = test: Antiproliferative activity against human Malme-3M cells assessed as cell growth inhibition at 10 uM incubated for 24 hrs by sulforhodamine B assay; type: functional; details: read-out: GI
MDA-MB-468 = test: Antiproliferative activity against human MDA-MB-468 cells assessed as cell growth inhibition at 10 uM incubated for 24 hrs by sulforhodamine B assay; type: functional; details: read-out: GI
EKVX = test: Antiproliferative activity against human EKVX cells assessed as cell growth inhibition at 10 uM incubated for 24 hrs by sulforhodamine B assay; type: functional; details: read-out: GI
SK-MEL-5 = test: Antiproliferative activity against human SK-MEL-5 cells assessed as cell growth inhibition at 10 uM incubated for 24 hrs by sulforhodamine B assay; type: functional; details: read-out: GI
SNB-75 = test: Antiproliferative activity against human SNB-75 cells assessed as cell growth inhibition at 10 uM incubated for 24 hrs by sulforhodamine B assay; type: functional; details: read-out: GI
NCI-H460 = test: Antiproliferative activity against human NCI-H460 cells assessed as cell growth inhibition at 10 uM incubated for 24 hrs by sulforhodamine B assay; type: functional; details: read-out: GI
SNB-19 = test: Antiproliferative activity against human SNB-19 cells assessed as cell growth inhibition at 10 uM incubated for 24 hrs by sulforhodamine B assay; type: functional; details: read-out: GI
ACHN = test: Antiproliferative activity against human ACHN cells assessed as cell growth inhibition at 10 uM incubated for 24 hrs by sulforhodamine B assay; type: functional; details: read-out: GI
786-0 = test: Antiproliferative activity against human 786-0 cells assessed as cell growth inhibition at 10 uM incubated for 24 hrs by sulforhodamine B assay; type: functional; details: read-out: GI
SF-539 = test: Antiproliferative activity against human SF-539 cells assessed as cell growth inhibition at 10 uM incubated for 24 hrs by sulforhodamine B assay; type: functional; details: read-out: GI
Hs-578T = test: Antiproliferative activity against human HS-578T cells assessed as cell growth inhibition at 10 uM incubated for 24 hrs by sulforhodamine B assay; type: functional; details: read-out: GI
MCF7 [3] = test: Antiproliferative activity against human MCF7 cells assessed as reduction in cell viability incubated for 24 hrs by sulforhodamine B assay; type: functional, cell-based; details: MCF7, 24 h
UACC-62 = test: Antiproliferative activity against human UACC-62 cells assessed as cell growth inhibition at 10 uM incubated for 24 hrs by sulforhodamine B assay; type: functional; details: read-out: GI
PC-3 = test: Antiproliferative activity against human PC-3 cells assessed as cell growth inhibition at 10 uM incubated for 24 hrs by sulforhodamine B assay; type: functional; details: read-out: GI
MDA-MB-231 [4] = test: Antiproliferative activity against human MDA-MB-231 cells assessed as reduction in cell viability incubated for 24 hrs by sulforhodamine B assay; type: functional, cell-based; details: MDA-MB-231, 24 h
SF-295 = test: Antiproliferative activity against human SF-295 cells assessed as cell growth inhibition at 10 uM incubated for 24 hrs by sulforhodamine B assay; type: functional; details: read-out: GI
OVCAR-4 = test: Antiproliferative activity against human OVCAR-4 cells assessed as cell growth inhibition at 10 uM incubated for 24 hrs by sulforhodamine B assay; type: functional; details: read-out: GI
A549 = test: Antiproliferative activity against human A549 cells assessed as cell growth inhibition at 10 uM incubated for 24 hrs by sulforhodamine B assay; type: functional; details: read-out: GI
HCT-15 = test: Antiproliferative activity against human HCT-15 cells assessed as cell growth inhibition at 10 uM incubated for 24 hrs by sulforhodamine B assay; type: functional; details: read-out: GI
T47D [5] = test: Antiproliferative activity against human T47D cells assessed as reduction in cell viability incubated for 24 hrs by sulforhodamine B assay; type: functional, cell-based
K562 = test: Antiproliferative activity against human K562 cells assessed as cell growth inhibition at 10 uM incubated for 24 hrs by sulforhodamine B assay; type: functional; details: read-out: GI
NCI-H226 = test: Antiproliferative activity against human NCI-H226 cells assessed as cell growth inhibition at 10 uM incubated for 24 hrs by sulforhodamine B assay; type: functional; details: read-out: GI
UO-31 = test: Antiproliferative activity against human UO-31 cells assessed as cell growth inhibition at 10 uM incubated for 24 hrs by sulforhodamine B assay; type: functional; details: read-out: GI
U-251 = test: Antiproliferative activity against human U-251 cells assessed as cell growth inhibition at 10 uM incubated for 24 hrs by sulforhodamine B assay; type: functional; details: read-out: GI
MDA-MB-435 = test: Antiproliferative activity against human MDA-MB-435 cells assessed as cell growth inhibition at 10 uM incubated for 24 hrs by sulforhodamine B assay; type: functional; details: read-out: GI
MCF7 [6] = test: Antiproliferative activity against human MCF7 cells assessed as cell growth inhibition at 10 uM incubated for 24 hrs by sulforhodamine B assay; type: functional; details: read-out: GI
LOX IMVI = test: Antiproliferative activity against human LOX IMVI cells assessed as cell growth inhibition at 10 uM incubated for 24 hrs by sulforhodamine B assay; type: functional; details: read-out: GI
[7] = Antiproliferative activity against human […] cells assessed as cell growth inhibition at 10 uM incubated for 24 hrs by sulforhodamine B assay; type: functional; details: read-out: GI
OVCAR-8 = test: Antiproliferative activity against human OVCAR-8 cells assessed as cell growth inhibition at 10 uM incubated for 24 hrs by sulforhodamine B assay; type: functional; details: read-out: GI
MOLT-4 = test: Antiproliferative activity against human MOLT-4 cells assessed as cell growth inhibition at 10 uM incubated for 24 hrs by sulforhodamine B assay; type: functional; details: read-out: GI
CAKI-1 = test: Antiproliferative activity against human CAKI-1 cells assessed as cell growth inhibition at 10 uM incubated for 24 hrs by sulforhodamine B assay; type: functional; details: read-out: GI
KM12 = test: Antiproliferative activity against human KM12 cells assessed as cell growth inhibition at 10 uM incubated for 24 hrs by sulforhodamine B assay; type: functional; details: read-out: GI
Carbonic anhydrase 2 = Carbonic anhydrase 2 (Homo sapiens, UniProt P00918); test: Inhibition of human CA2 preincubated for 15 mins by phenol red dye based stopped flow CO2 hydration assay
SK-MEL-2 = test: Antiproliferative activity against human SK-MEL-2 cells assessed as cell growth inhibition at 10 uM incubated for 24 hrs by sulforhodamine B assay; type: functional; details: read-out: GI
NCI-H23 = test: Antiproliferative activity against human NCI-H23 cells assessed as cell growth inhibition at 10 uM incubated for 24 hrs by sulforhodamine B assay; type: functional; details: read-out: GI

COc1ccc(OC)c(-c2nc(SCC(=O)c3ccccc3)nc(Nc3ccc(S(N)(=O)=O)cc3)c2C#N)c1
inhibition of growth at 10 µM (RXF 393): 25.6%
inhibition of growth at 10 µM (HCT-116): 7.67%
inhibition of growth at 10 µM (RPMI-8226): 18.1%
inhibition of growth at 10 µM (A498): 30.7%
inhibition of growth at 10 µM (CCRF-CEM): 10.7%
Ki (Carbonic anhydrase 9): 87.7 nM
inhibition of growth at 10 µM (SR): 22.7%
inhibition of growth at 10 µM (T47D [1]): 20.4%
inhibition of growth at 10 µM (DU-145): 8.97%
inhibition of growth at 10 µM (SN12C): 14.1%
inhibition of growth at 10 µM (HOP-92): 52%
inhibition of growth at 10 µM (HL-60): 8.52%
inhibition of growth at 10 µM (MDA-MB-231 [2]): 23.6%
inhibition of growth at 10 µM (NCI-H522): 6.74%
inhibition of growth at 10 µM (BT-549): 8.03%
inhibition of growth at 10 µM (Malme-3M): 6.7%
inhibition of growth at 10 µM (MDA-MB-468): 18.3%
inhibition of growth at 10 µM (EKVX): 11.3%
inhibition of growth at 10 µM (SK-MEL-5): 5.91%
inhibition of growth at 10 µM (SNB-75): 18.4%
inhibition of growth at 10 µM (NCI-H460): 10.9%
inhibition of growth at 10 µM (SNB-19): 9.28%
inhibition of growth at 10 µM (ACHN): 6.95%
inhibition of growth at 10 µM (786-0): 12.6%
inhibition of growth at 10 µM (SF-539): 27.1%
inhibition of growth at 10 µM (Hs-578T): 6.75%
IC50 (MCF7 [3]): > 100 µM
inhibition of growth at 10 µM (UACC-62): 5.35%
inhibition of growth at 10 µM (PC-3): 20.6%
IC50 (MDA-MB-231 [4]): > 100 µM
inhibition of growth at 10 µM (SF-295): 10.3%
inhibition of growth at 10 µM (OVCAR-4): 14.9%
inhibition of growth at 10 µM (A549): 10.8%
inhibition of growth at 10 µM (HCT-15): 26.3%
IC50 (T47D [5]): > 100 µM
inhibition of growth at 10 µM (K562): 14.6%
inhibition of growth at 10 µM (NCI-H226): 7.28%
inhibition of growth at 10 µM (UO-31): 29.1%
inhibition of growth at 10 µM (U-251): 9.25%
inhibition of growth at 10 µM (MDA-MB-435): 7.57%
inhibition of growth at 10 µM (MCF7 [6]): 14.7%
inhibition of growth at 10 µM (LOX IMVI): 17.7%
inhibition of growth at 10 µM [7]: 10.1%
inhibition of growth at 10 µM (OVCAR-8): 7.32%
inhibition of growth at 10 µM (MOLT-4): 30.1%
inhibition of growth at 10 µM (CAKI-1): 23.3%
inhibition of growth at 10 µM (KM12): 8.89%

CC(C)c1nc(SCC(=O)c2ccc(Br)cc2)nc(Nc2ccc(S(N)(=O)=O)cc2)c1C#N
inhibition of growth at 10 µM (RXF 393): 22.2%
inhibition of growth at 10 µM (HCT-116): 6.95%
inhibition of growth at 10 µM (RPMI-8226): 12.3%
Ki (Carbonic anhydrase 2): > 20 µM
Ki (Carbonic anhydrase 9): 380 nM
inhibition of growth at 10 µM (T47D [1]): 33%
inhibition of growth at 10 µM (SN12C): 5.41%
inhibition of growth at 10 µM (HL-60): 24.1%
inhibition of growth at 10 µM (MDA-MB-231 [2]): 9.41%
inhibition of growth at 10 µM (SK-MEL-2): 9.02%
inhibition of growth at 10 µM (NCI-H522): 10.7%
inhibition of growth at 10 µM (Malme-3M): 11.7%
inhibition of growth at 10 µM (MDA-MB-468): 15.3%
inhibition of growth at 10 µM (EKVX): 10.7%
inhibition of growth at 10 µM (SK-MEL-5): 5.21%
inhibition of growth at 10 µM (NCI-H23): 20.2%
inhibition of growth at 10 µM (ACHN): 6.53%
inhibition of growth at 10 µM (UACC-62): 24.3%
inhibition of growth at 10 µM (PC-3): 12.5%
inhibition of growth at 10 µM (OVCAR-4): 6.52%
inhibition of growth at 10 µM (HCT-15): 7.17%
inhibition of growth at 10 µM (K562): 9.23%
inhibition of growth at 10 µM (NCI-H226): 21.1%
inhibition of growth at 10 µM (UO-31): 31.2%
inhibition of growth at 10 µM (MCF7 [6]): 6.24%
inhibition of growth at 10 µM (MOLT-4): 13.7%
inhibition of growth at 10 µM (CAKI-1): 12.2%
